Literature values, collected in patent publication US7887828B2, “Dual action organic formulation to control two stages of insect pests” (ISCA Technologies, Inc., priority 2006, dated 2011).

Key:
[1] = test system: gypsy moth larvae
[2] = test system: gypsy moth larvae; conditions: 16 hours after a 2 minute crawling exposure to glass coated with a 4 mg/litre solution
[3] = test system: gypsy moth larvae; conditions: 3-day exposure; 13-day evaluation; 2nd instar larvae; treated red oak leaf disks
[4] = test system: mammalian and avian species; conditions: as indicated by DAS

Question: Which larval populations reduced ([1]; 3±50 mg/litre applied to run-off, ornamental style applications) does the source give for spinosad here?
Answer: 95±100%

Question: And the population reduction ([1]; application rate of 0.75 mg/litre)?
Answer: large population reductions

Question: What about the “concentrations that effectively controlled 2nd instar larvae” value ([1]; applied to foliage to run-off, laboratory potted red oak seedlings and field 4 m-tall birch trees) of the same substance?
Answer: 3 to 50 mg/L

Question: What about the treated larvae paralyzed [2] of the same substance?
Answer: 50%

Question: What about the LC50 [3] of the same substance?
Answer: 0.0015 mg AI/cm2

Question: What about the “toxicity to mammalian and avian species” value [4] of the same substance?
Answer: little or no toxicity
